Assay results: ChEMBL document CHEMBL3885881, “DrugMatrix”

Species: Rattus norvegicus
Experiment: DrugMatrix - Regimen: Daily Repeat
Assay type: toxicity, organism-based, Sprague-Dawley
Parameters: regimen Daily Repeat, gender Male, age 6-8 weeks
Settings: in vivo, iv, vehicle 100 % SALINE; for ABSOLUTE BASOPHIL / ABSOLUTE EOSINOPHIL / ABSOLUTE LYMPHOCYTE / ABSOLUTE MONOCYTE / ABSOLUTE SEGMENTED NEUTROPHIL / BASOPHIL / EOSINOPHIL / ERYTHROCYTE COUNT / HEMATOCRIT / HEMOGLOBIN / LEUKOCYTE COUNT / LYMPHOCYTE / MEAN CORPUSCULAR HEMOGLOBIN / MEAN CORPUSCULAR HEMOGLOBIN CONCENTRATION / MEAN CORPUSCULAR VOLUME / MONOCYTE / NUCLEATED RED BLOOD CELLS / PLATELET COUNT: tissue Blood; for ALANINE AMINOTRANSFERASE / ALBUMIN / ALKALINE PHOSPHATASE / ASPARTATE AMINOTRANSFERASE / BLOOD UREA NITROGEN / CARBON DIOXIDE / CHLORIDE / CHOLESTEROL / CREATINE PHOSPHOKINASE / CREATININE / GLUCOSE / LACTATE DEHYDROGENASE / PHOSPHORUS / POTASSIUM / SODIUM / TOTAL BILIRUBIN / TOTAL PROTEIN / URIC ACID: tissue Plasma
[1] = 25 mg/kg, 72 h, dose level Low, time 3 day
[2] = 25 mg/kg, 120 h, dose level Low, time 5 day
[3] = 160 mg/kg, 72 h, dose level High, time 3 day
[4] = 160 mg/kg, 120 h, dose level High, time 5 day

CN[C@H](CC(C)C)C(=O)N[C@H]1C(=O)N[C@@H](CC(N)=O)C(=O)N[C@H]2C(=O)N[C@H]3C(=O)N[C@H](C(=O)N[C@H](C(=O)O)c4cc(O)cc(O)c4-c4cc3ccc4O)[C@H](O)c3ccc(c(Cl)c3)Oc3cc2cc(c3O[C@@H]2O[C@H](CO)[C@@H](O)[C@H](O)[C@H]2O[C@H]2C[C@](C)(N)[C@H](O)[C@H](C)O2)Oc2ccc(cc2Cl)[C@H]1O [VANCOMYCIN]
ABSOLUTE BASOPHIL [1]: 0 CELLS/uL | ABSOLUTE EOSINOPHIL [1]: 39.33 CELLS/uL | ABSOLUTE LYMPHOCYTE [1]: 11516.33 CELLS/uL | ABSOLUTE MONOCYTE [1]: 255.67 CELLS/uL | ABSOLUTE SEGMENTED NEUTROPHIL [1]: 1222 CELLS/uL | BASOPHIL [1]: 0% | EOSINOPHIL [1]: 0.33% | ERYTHROCYTE COUNT [1]: 5.26 x10E6/uL | HEMATOCRIT [1]: 34.27% | HEMOGLOBIN [1]: 13.57 G/DL | LEUKOCYTE COUNT [1]: 13.03 x10E3/uL | LYMPHOCYTE [1]: 88.33% | MEAN CORPUSCULAR HEMOGLOBIN [1]: 25.87 pg | MEAN CORPUSCULAR HEMOGLOBIN CONCENTRATION [1]: 39.63 G/DL | MEAN CORPUSCULAR VOLUME [1]: 65.13 fL | MONOCYTE [1]: 2% | NUCLEATED RED BLOOD CELLS [1]: 0 /100WBC | PLATELET COUNT [1]: 1239 x10E3/uL | ALANINE AMINOTRANSFERASE [1]: 49 u/L | ALBUMIN [1]: 4.13 G/DL | ALKALINE PHOSPHATASE [1]: 403 u/L | ASPARTATE AMINOTRANSFERASE [1]: 88 u/L | BLOOD UREA NITROGEN [1]: 17.67 mg/dL | CARBON DIOXIDE [1]: 28 mmol/L | CHLORIDE [1]: 100.67 MEQ/L | CHOLESTEROL [1]: 67.33 mg/dL | CREATINE PHOSPHOKINASE [1]: 365.67 u/L | CREATININE [1]: 0.22 mg/dL | GLUCOSE [1]: 144 mg/dL | LACTATE DEHYDROGENASE [1]: 331.67 u/L | PHOSPHORUS [1]: 12.13 mg/dL | POTASSIUM [1]: 6.95 MEQ/L | SODIUM [1]: 142.77 MEQ/L | TOTAL BILIRUBIN [1]: 0.23 mg/dL | TOTAL PROTEIN [1]: 5.77 G/DL | URIC ACID [1]: 1.33 mg/dL | ABSOLUTE BASOPHIL [2]: 0 CELLS/uL | ABSOLUTE EOSINOPHIL [2]: 41.33 CELLS/uL | ABSOLUTE LYMPHOCYTE [2]: 15492.33 CELLS/uL | ABSOLUTE MONOCYTE [2]: 306.33 CELLS/uL | ABSOLUTE SEGMENTED NEUTROPHIL [2]: 660 CELLS/uL | BASOPHIL [2]: 0% | EOSINOPHIL [2]: 0.33% | ERYTHROCYTE COUNT [2]: 5.54 x10E6/uL | HEMATOCRIT [2]: 34.03% | HEMOGLOBIN [2]: 13.7 G/DL | LEUKOCYTE COUNT [2]: 16.5 x10E3/uL | LYMPHOCYTE [2]: 94% | MEAN CORPUSCULAR HEMOGLOBIN [2]: 24.73 pg | MEAN CORPUSCULAR HEMOGLOBIN CONCENTRATION [2]: 40.23 G/DL | MEAN CORPUSCULAR VOLUME [2]: 61.4 fL | MONOCYTE [2]: 1.67% | NUCLEATED RED BLOOD CELLS [2]: 0.33 /100WBC | PLATELET COUNT [2]: 1313.33 x10E3/uL | ALANINE AMINOTRANSFERASE [2]: 58.33 u/L | ALBUMIN [2]: 4.03 G/DL | ALKALINE PHOSPHATASE [2]: 397.67 u/L | ASPARTATE AMINOTRANSFERASE [2]: 92.67 u/L | BLOOD UREA NITROGEN [2]: 17.67 mg/dL | CARBON DIOXIDE [2]: 31.33 mmol/L | CHLORIDE [2]: 100 MEQ/L | CHOLESTEROL [2]: 76.33 mg/dL | CREATINE PHOSPHOKINASE [2]: 598 u/L | CREATININE [2]: 0.26 mg/dL | GLUCOSE [2]: 165.33 mg/dL | LACTATE DEHYDROGENASE [2]: 117 u/L | PHOSPHORUS [2]: 11.5 mg/dL | POTASSIUM [2]: 6.64 MEQ/L | SODIUM [2]: 144.23 MEQ/L | TOTAL BILIRUBIN [2]: 0.17 mg/dL | TOTAL PROTEIN [2]: 5.87 G/DL | URIC ACID [2]: 1.3 mg/dL | ABSOLUTE BASOPHIL [3]: 0 CELLS/uL | ABSOLUTE EOSINOPHIL [3]: 0 CELLS/uL | ABSOLUTE LYMPHOCYTE [3]: 10993 CELLS/uL | ABSOLUTE MONOCYTE [3]: 34 CELLS/uL | ABSOLUTE SEGMENTED NEUTROPHIL [3]: 1339.67 CELLS/uL | BASOPHIL [3]: 0% | EOSINOPHIL [3]: 0% | ERYTHROCYTE COUNT [3]: 5.96 x10E6/uL | HEMATOCRIT [3]: 37.17% | HEMOGLOBIN [3]: 14.47 G/DL | LEUKOCYTE COUNT [3]: 12.37 x10E3/uL | LYMPHOCYTE [3]: 88.67% | MEAN CORPUSCULAR HEMOGLOBIN [3]: 24.27 pg | MEAN CORPUSCULAR HEMOGLOBIN CONCENTRATION [3]: 38.97 G/DL | MEAN CORPUSCULAR VOLUME [3]: 62.4 fL | MONOCYTE [3]: 0.33% | NUCLEATED RED BLOOD CELLS [3]: 0 /100WBC | PLATELET COUNT [3]: 1496.67 x10E3/uL | ALANINE AMINOTRANSFERASE [3]: 47.33 u/L | ALBUMIN [3]: 4.57 G/DL | ALKALINE PHOSPHATASE [3]: 338 u/L | ASPARTATE AMINOTRANSFERASE [3]: 86.67 u/L | BLOOD UREA NITROGEN [3]: 22 mg/dL | CARBON DIOXIDE [3]: 32 mmol/L | CHLORIDE [3]: 99 MEQ/L | CHOLESTEROL [3]: 76 mg/dL | CREATINE PHOSPHOKINASE [3]: 389.67 u/L | CREATININE [3]: 0.21 mg/dL | GLUCOSE [3]: 156.33 mg/dL | LACTATE DEHYDROGENASE [3]: 197.67 u/L | PHOSPHORUS [3]: 12.37 mg/dL | POTASSIUM [3]: 6.51 MEQ/L | SODIUM [3]: 142.77 MEQ/L | TOTAL BILIRUBIN [3]: 0.17 mg/dL | TOTAL PROTEIN [3]: 6.4 G/DL | URIC ACID [3]: 2.33 mg/dL | ABSOLUTE BASOPHIL [4]: 0 CELLS/uL | ABSOLUTE EOSINOPHIL [4]: 126 CELLS/uL | ABSOLUTE LYMPHOCYTE [4]: 16262 CELLS/uL | ABSOLUTE MONOCYTE [4]: 538.67 CELLS/uL | ABSOLUTE SEGMENTED NEUTROPHIL [4]: 2873.33 CELLS/uL | BASOPHIL [4]: 0% | EOSINOPHIL [4]: 0.67% | ERYTHROCYTE COUNT [4]: 5.73 x10E6/uL | HEMATOCRIT [4]: 35.13% | HEMOGLOBIN [4]: 14.03 G/DL | LEUKOCYTE COUNT [4]: 19.8 x10E3/uL | LYMPHOCYTE [4]: 82.33% | MEAN CORPUSCULAR HEMOGLOBIN [4]: 24.47 pg | MEAN CORPUSCULAR HEMOGLOBIN CONCENTRATION [4]: 40 G/DL | MEAN CORPUSCULAR VOLUME [4]: 61.27 fL | MONOCYTE [4]: 2.67% | NUCLEATED RED BLOOD CELLS [4]: 0 /100WBC | PLATELET COUNT [4]: 1243.33 x10E3/uL | ALANINE AMINOTRANSFERASE [4]: 47.33 u/L | ALBUMIN [4]: 3.73 G/DL | ALKALINE PHOSPHATASE [4]: 287.33 u/L | ASPARTATE AMINOTRANSFERASE [4]: 77.33 u/L | BLOOD UREA NITROGEN [4]: 29.67 mg/dL | CARBON DIOXIDE [4]: 27.67 mmol/L | CHLORIDE [4]: 99.33 MEQ/L | CHOLESTEROL [4]: 72.33 mg/dL | CREATINE PHOSPHOKINASE [4]: 467.33 u/L | CREATININE [4]: 0.34 mg/dL | GLUCOSE [4]: 139 mg/dL | LACTATE DEHYDROGENASE [4]: 171.67 u/L | PHOSPHORUS [4]: 10.27 mg/dL | POTASSIUM [4]: 6.39 MEQ/L | SODIUM [4]: 143.07 MEQ/L | TOTAL BILIRUBIN [4]: 0.13 mg/dL | TOTAL PROTEIN [4]: 6.03 G/DL | URIC ACID [4]: 1.4 mg/dL
